Values of other authors as cited in patent US20100062042A1, “Methods, Systems and Devices for Administration of Chlorine Dioxide” (priority 2008, published 2010).

Experiments:
[1] = particularly in chilled water
[2] = system: Pseudomonas aeruginosa (P. aeruginosa); conditions: see U.S. Application No. 61/150,685
[3] = system: methicillin-resistant Staphylococcus aureus (MRSA); conditions: see U.S. Application No. 61/150,685

In the case of `[O][Cl+][O-]` [chlorine dioxide, Chlorine dioxide], the Solubility in water [1] is listed as “high solubility in water”, the “Effectiveness against P. aeruginosa” value [2] is listed as “effective” and the “Effectiveness against MRSA” value [3] is listed as “effective”.
